How the values were obtained:
Experiment in all cases: Monolayer growth inhibition assay (MTT/MTS)
Assay type in all cases: cell-based
[1] = test system: SW948 colon cancer cell line
Description: (§1) The MTT is a colorimetric assay to determine the cell proliferation rate. The yellow tetrazolium MTT (3-(4, 5-dimethylthiazolyl-2)-2, 5-diphenyltetrazolium bromide) is reduced, by metabolically active cells, in part by the action of dehydrogenase enzymes, to generate reducing equivalents such as NADH and NADPH. The resulting intracellular purple formazan can be solubilized and quantified by spectrophotometric means. The signals produced is directly proportional to the cell numbers. Describing the MTT assay in detail, experiments were done using six-point or 9 point drug titrations in multi-well tissue culture dishes, with outer rows left empty. Cells were suspended in complete media at densities of between 10^3 and 10^4 cell/ml, respectively, and added per well. The appropriate medium (200 μl) was then added. Twenty-four hours later, 10 μl of MTS solution, were added to one plates to determine the activity at the time of compound addition (T0). This plate was incubated at 37° for 4 hours and the optical density was measured on a Molecular Devices Thermomax at 490 nm using the Softmax program. The T0 plate served as a reference for initial activity at the beginning of the experiment.
(§2) Compound addition began 24 hours after seeding, the same time as the T0 determination. Serial dilutions at 4-fold 2-fold, 1-fold, 0.5-fold, 0.25-fold and 0.125-fold of previously determined IC50 values of each compound were made in a 96-deep well plate with the highest concentrations on the edge of the plate. Each of the six dilutions were added in triplicate and complete medium was added to the empty outer rows, without cells. The compounds were added to the plates singly or in combination with Compound III (LBH589). The plates were incubated at 37° C. for 72 hours from seeding. The MTS solution was added (as for the T0 plate) and read four hours later. In order to analyze the data, the average value of media alone (background) was subtracted from each experimental well and the triplicate values were averaged for each compound dilution. The following formulas were used to calculate percent growth.
(§3) If X>T0, % Growth=100×(X−T0)/(GC−T0))
(§4) If X<T0, % Growth=100×(X−T0)/T0)
(§5) T0=average value of T0 minus background
(§6) GC=average value of untreated cells (in triplicate) minus background X=average value, of compound treated cells (in triplicate) minus background
(§7) IC50 the concentration of LBH589 required to inhibit cell growth by 50% and LD50s the concentration required to reduce cell number (kill cells) to 50% the original innoculum were determined. The “% Growth” was plotted against compound concentration and used to calculate IC50s and LD50s, employing the user-defined spline function in Microsoft Excel.
(§8) Colon cancer cell lines were treated with DMSO vehicle control or varying concentrations of LBH589 for 3 days. Cell proliferation was measured on the day of cell plating and on the third day post-treatment. IC50 and LD50 values were calculated as described above.

[2] = test system: SNU-C1 colon cancer cell line
Description: as §1, §2, §3, §4, §5, §6, §7, §8

[3] = test system: C170 colon cancer cell line
Description: as §1, §2, §3, §4, §5, §6, §7, §8

[4] = test system: SW1116 colon cancer cell line
Description: as §1, §2, §3, §4, §5, §6, §7, §8

[5] = test system: LS1034 colon cancer cell line
Description: as §1, §2, §3, §4, §5, §6, §7, §8

[6] = test system: HT55 colon cancer cell line
Description: as §1, §2, §3, §4, §5, §6, §7, §8

[7] = test system: Colo206F colon cancer cell line
Description: as §1, §2, §3, §4, §5, §6, §7, §8

[8] = test system: RKO colon cancer cell line
Description: as §1, §2, §3, §4, §5, §6, §7, §8

[9] = test system: Colo741 colon cancer cell line
Description: as §1, §2, §3, §4, §5, §6, §7, §8

[10] = test system: Colo320DM colon cancer cell line
Description: as §1, §2, §3, §4, §5, §6, §7, §8

[11] = test system: KM20L2 colon cancer cell line
Description: as §1, §2, §3, §4, §5, §6, §7, §8

[12] = test system: Colo201 colon cancer cell line
Description: as §1, §2, §3, §4, §5, §6, §7, §8

[13] = test system: WiDr colon cancer cell line
Description: as §1, §2, §3, §4, §5, §6, §7, §8

[14] = test system: HCC2998 colon cancer cell line
Description: as §1, §2, §3, §4, §5, §6, §7, §8

[15] = test system: LOVO colon cancer cell line
Description: as §1, §2, §3, §4, §5, §6, §7, §8

[16] = test system: SW620 colon cancer cell line
Description: as §1, §2, §3, §4, §5, §6, §7, §8

[17] = test system: LS174T colon cancer cell line
Description: as §1, §2, §3, §4, §5, §6, §7, §8

[18] = test system: SW480 colon cancer cell line
Description: as §1, §2, §3, §4, §5, §6, §7, §8

[19] = test system: Colo320HSR colon cancer cell line
Description: as §1, §2, §3, §4, §5, §6, §7, §8

[20] = test system: SW403 colon cancer cell line
Description: as §1, §2, §3, §4, §5, §6, §7, §8

[21] = 3 days, concentration reducing cell number to 50% of original inoculum
[22] = Homo sapiens, 72 h, 3 days treatment

SMILES: Cc1[nH]c2ccccc2c1CCNCc1ccc(/C=C/C(=O)NO)cc1 [LBH589, N-hydroxy-3-[4-[[[2-(2-methyl-1H-indol-3-yl)ethyl]-amino]methyl]phenyl]-2E-2-propenamide]
- IC50 ([1]; Homo sapiens, 72 h, SW948, 3 days treatment): 5.06 nM
- LD50 ([1]; SW948, 3 days, concentration reducing cell number to 50% of original inoculum): 34.92 nM
- IC50 ([2]; Homo sapiens, 72 h, SNU-C1, 3 days treatment): 4.51 nM
- LD50 ([2]; SNU-C1, 3 days, concentration reducing cell number to 50% of original inoculum): 26.07 nM
- LD50 ([3]; C170, 3 days, concentration reducing cell number to 50% of original inoculum): 382.03 nM
- IC50 ([3]; Homo sapiens, 72 h, C170, 3 days treatment): 62.3 nM
- IC50 ([4]; Homo sapiens, SW 1116, 72 h, SW1116, 3 days treatment): 2.28 nM
- LD50 ([4]; SW1116, 3 days, concentration reducing cell number to 50% of original inoculum): 26.93 nM
- IC50 ([5]; Homo sapiens, LS-1034, 72 h, LS1034, 3 days treatment): 76.7 nM
- LD50 ([5]; LS1034, 3 days, concentration reducing cell number to 50% of original inoculum): 227.83 nM
- LD50 ([6]; HT55, 3 days, concentration reducing cell number to 50% of original inoculum): 334.52 nM
- IC50 ([6]; Homo sapiens, 72 h, HT55, 3 days treatment): 8.21 nM
- LD50 [7, 21]: >10 µM
- IC50 ([7]; COLO 206F, 72 h, 3 days treatment): 10.1 nM
- IC50 ([8]; 72 h, 3 days treatment): 5.57 nM
- LD50 [8, 21]: 2346.13 nM
- LD50 ([9]; Colo741, 3 days, concentration reducing cell number to 50% of original inoculum): 33.73 nM
- IC50 ([9]; Homo sapiens, COLO-741, 72 h, Colo741, 3 days treatment): 9.22 nM
- LD50 [10, 21]: 1103.37 nM
- IC50 ([10]; Homo sapiens, COLO 320DM, 72 h, 3 days treatment): 29.5 nM
- IC50 ([11]; Homo sapiens, KM-20L2, 72 h, KM20L2, 3 days treatment): 14.6 nM
- LD50 ([11]; KM20L2, 3 days, concentration reducing cell number to 50% of original inoculum): 16.95 nM
- LD50 ([12]; Colo201, 3 days, concentration reducing cell number to 50% of original inoculum): 20.14 nM
- IC50 ([12]; Homo sapiens, COLO 201, 72 h, Colo201, 3 days treatment): 15.1 nM
- LD50 [13, 21]: 41.86 nM
- IC50 [13, 22]: 4.39 nM
- LD50 ([14]; HCC2998, 3 days, concentration reducing cell number to 50% of original inoculum): 154.87 nM
- IC50 ([14]; Homo sapiens, HCC 2998, 72 h, HCC2998, 3 days treatment): 29.7 nM
- LD50 [15, 21]: 52.01 nM
- IC50 [15, 22]: 4.37 nM
- IC50 ([16]; Homo sapiens, SW-620, 72 h, SW620, 3 days treatment): 0.79 nM
- LD50 ([16]; SW620, 3 days, concentration reducing cell number to 50% of original inoculum): 1.70 nM
- LD50 [17, 21]: 87.41 nM
- IC50 [17, 22]: 16.8 nM
- IC50 ([18]; Homo sapiens, 72 h, SW480, 3 days treatment): 1.48 nM
- LD50 ([18]; SW480, 3 days, concentration reducing cell number to 50% of original inoculum): 6.90 nM
- LD50 [19, 21]: >10 µM
- IC50 ([19]; Homo sapiens, COLO-320-HSR, 72 h, 3 days treatment): 13.8 nM
- IC50 ([20]; Homo sapiens, SW-403, 72 h, SW403, 3 days treatment): 2.03 nM
- LD50 ([20]; SW403, 3 days, concentration reducing cell number to 50% of original inoculum): 9.84 nM
